# Patent publication US20260217701A1, “SELECTIVE BET INHIBITORS AND USES THEREOF” (Tay Therapeutics Limited, priority 2022, published 2026)
# Marks after values point to notes of the source that are not given here.
# Tested on: experimental autoimmune encephalomyelitis
# Assay: Experimental autoimmune encephalomyelitis (EAE) model: EAE scores, onset, incidence
# Format: in vivo, C57BI/6 mice
# Method: Experimental Method H: EAE in animals treated with a BET inhibitor and vehicle. Animals were assigned to the groups outlined in Table 38.
# Compound A may be formulated as illustrated in Experimental Method A (see Table 2E.). A 40 mg/mL stock solution of Compound A in DMSO was prepared and aliquots stored at −20° C. On each day of preparation an e.g., 0.75 mL aliquot of thawed stock was diluted with an equal volume of DMSO. The remaining vehicle components were added to provide the highest dose and then diluted with vehicle to provide lower doses. A 30 mg/mL stock solution of FTY720 in ethanol was prepared and stored at −20° C. Daily, the stock solution was diluted with room temperature water to a final dosing concentration of 0.6 mg/mL. Formulated Compound A, FTY720 and vehicle were each at room temperature for dosing.
# Female C57BI/6 mice (9 weeks old) were acclimated for seven days prior to study initiation. On Day-1, animals were assigned to groups in a balanced manner to achieve similar average weights across the different groups. Chronic EAE was induced in female C57BI/6 mice following immunization with an emulsion of MOG35-55/CFA on Day 0, followed by an injection of pertussis toxin two hours after the initial immunization. On Day 1, a second injection of pertussis toxin was administered 24 hours after the initial immunization. Mice were injected subcutaneously at two sites on the back with the MOG35-55/CFA emulsion (Hooke Kit™ MOG35-55/CFA Emulsion PTX). The first injection site was located approximately 1 cm caudal of the neckline (upper back), and the second injection site was approximately 2 cm cranial of the base of the tail (lower back). The injection volume was 0.1 mL for each injection. The pertussis toxin was administered at the described times through intraperitoneal injection at a concentration of 85 ng/dose for both injections.
# Body weight was measured three times a week (Monday, Wednesday, and Friday) starting on Day-1. Animals were scored daily for EAE starting on Day 7. In-between scores were assigned when the clinical signs fell between two below defined scores.
# [1] = all animals receiving Compound A
smiles,measurement,setting,value
"Cn1cc(-c2ccccc2)c(-c2cn(C)c(=O)c3[nH]c(-c4cnn(C(F)(F)F)c4)cc23)cc1=O [Compound A, 6-methyl-4-(1-methyl-2-oxo-5-phenyl-1,2-dihydropyridin-4-yl)-2-(1-(trifluoromethyl)-1H-pyrazol-4-yl)-1,6-dihydro-7H-pyrrolo[2,3-c]pyridin-7-one]",EAE incidence rate,1 mg/kg (lowest dose),100%
same,Mean maximum EAE scores relative to vehicle,"1 mg/kg, 3 mg/kg and 10 mg/kg",significantly reduced mean maximum scores
same,EAE incidence rate,3 mg/kg,91.7%
same,EAE incidence rate,10 mg/kg,83.3%
same,Incidence of EAE (%),Compound A 1 mg/kg (Group 2),100%
same,Mean Day of Onset (SEM),Compound A 1 mg/kg (Group 2),14.5 (0.9) Day
same,Mean End Score (SEM),Compound A 1 mg/kg (Group 2),1.05 (0.35)*
same,Mean Maximum Score (SEM),Compound A 1 mg/kg (Group 2),2.18 (0.25)*
same,Median Day of Onset,Compound A 1 mg/kg (Group 2),13.0 days
same,Mean EAE score,"Compound A 1 mg/kg (Group 2), Day 7",0.00
same,Mean EAE score,"Compound A 1 mg/kg (Group 2), Day 8",0.00
same,Mean EAE score,"Compound A 1 mg/kg (Group 2), Day 9",0.00
same,Mean EAE score,"Compound A 1 mg/kg (Group 2), Day 10",0.00
same,Mean EAE score,"Compound A 1 mg/kg (Group 2), Day 11",0.05
same,Mean EAE score,"Compound A 1 mg/kg (Group 2), Day 12",0.18
same,Mean EAE score,"Compound A 1 mg/kg (Group 2), Day 13",0.55
same,Mean EAE score,"Compound A 1 mg/kg (Group 2), Day 14",0.95
same,Mean EAE score,"Compound A 1 mg/kg (Group 2), Day 15",1.27
same,Mean EAE score,"Compound A 1 mg/kg (Group 2), Day 16",1.45
same,Mean EAE score,"Compound A 1 mg/kg (Group 2), Day 17",1.73
same,Mean EAE score,"Compound A 1 mg/kg (Group 2), Day 18",1.68
same,Mean EAE score,"Compound A 1 mg/kg (Group 2), Day 19",1.68
same,Mean EAE score,"Compound A 1 mg/kg (Group 2), Day 20",1.55
same,Mean EAE score,"Compound A 1 mg/kg (Group 2), Day 21",1.64
same,Mean EAE score,"Compound A 1 mg/kg (Group 2), Day 22",1.32
same,Mean EAE score,"Compound A 1 mg/kg (Group 2), Day 23",1.23
same,Mean EAE score,"Compound A 1 mg/kg (Group 2), Day 24",1.23
same,Mean EAE score,"Compound A 1 mg/kg (Group 2), Day 25",1.09
same,Mean EAE score,"Compound A 1 mg/kg (Group 2), Day 26",1.14
same,Mean EAE score,"Compound A 1 mg/kg (Group 2), Day 27",1.09
same,Mean EAE score,"Compound A 1 mg/kg (Group 2), Day 28",1.05
same,Incidence of EAE (%),Compound A 3 mg/kg (Group 3),91.7%
same,Mean Day of Onset (SEM),Compound A 3 mg/kg (Group 3),14.2 (0.4) Day
same,Mean End Score (SEM),Compound A 3 mg/kg (Group 3),0.73 (0.26)**
same,Mean Maximum Score (SEM),Compound A 3 mg/kg (Group 3),1.77 (0.23)***
same,Median Day of Onset,Compound A 3 mg/kg (Group 3),14.0 days
same,Mean EAE score,"Compound A 3 mg/kg (Group 3), Day 7",0.00
same,Mean EAE score,"Compound A 3 mg/kg (Group 3), Day 8",0.00
same,Mean EAE score,"Compound A 3 mg/kg (Group 3), Day 9",0.00
same,Mean EAE score,"Compound A 3 mg/kg (Group 3), Day 10",0.00
same,Mean EAE score,"Compound A 3 mg/kg (Group 3), Day 11",0.00
same,Mean EAE score,"Compound A 3 mg/kg (Group 3), Day 12",0.00
same,Mean EAE score,"Compound A 3 mg/kg (Group 3), Day 13",0.29
same,Mean EAE score,"Compound A 3 mg/kg (Group 3), Day 14",0.63
same,Mean EAE score,"Compound A 3 mg/kg (Group 3), Day 15",0.88
same,Mean EAE score,"Compound A 3 mg/kg (Group 3), Day 16",1.29
same,Mean EAE score,"Compound A 3 mg/kg (Group 3), Day 17",1.67
same,Mean EAE score,"Compound A 3 mg/kg (Group 3), Day 18",1.54
same,Mean EAE score,"Compound A 3 mg/kg (Group 3), Day 19",1.18
same,Mean EAE score,"Compound A 3 mg/kg (Group 3), Day 20",1.23
same,Mean EAE score,"Compound A 3 mg/kg (Group 3), Day 21",1.18
same,Mean EAE score,"Compound A 3 mg/kg (Group 3), Day 22",0.95
same,Mean EAE score,"Compound A 3 mg/kg (Group 3), Day 23",0.91
same,Mean EAE score,"Compound A 3 mg/kg (Group 3), Day 24",0.91
same,Mean EAE score,"Compound A 3 mg/kg (Group 3), Day 25",0.95
same,Mean EAE score,"Compound A 3 mg/kg (Group 3), Day 26",0.95
same,Mean EAE score,"Compound A 3 mg/kg (Group 3), Day 27",0.95
same,Mean EAE score,"Compound A 3 mg/kg (Group 3), Day 28",0.73
same,Incidence of EAE (%),Compound A 10 mg/kg (Group 4),83.3%
same,Mean Day of Onset (SEM),Compound A 10 mg/kg (Group 4),13.4 (0.6) Day
same,Mean End Score (SEM),Compound A 10 mg/kg (Group 4),0.29 (0.13)***
same,Mean Maximum Score (SEM),Compound A 10 mg/kg (Group 4),1.67 (0.28)***
same,Median Day of Onset,Compound A 10 mg/kg (Group 4),13.0 days
same,Mean EAE score,"Compound A 10 mg/kg (Group 4), Day 7",0.00
same,Mean EAE score,"Compound A 10 mg/kg (Group 4), Day 8",0.00
same,Mean EAE score,"Compound A 10 mg/kg (Group 4), Day 9",0.00
same,Mean EAE score,"Compound A 10 mg/kg (Group 4), Day 10",0.00
same,Mean EAE score,"Compound A 10 mg/kg (Group 4), Day 11",0.04
same,Mean EAE score,"Compound A 10 mg/kg (Group 4), Day 12",0.21
same,Mean EAE score,"Compound A 10 mg/kg (Group 4), Day 13",0.83
same,Mean EAE score,"Compound A 10 mg/kg (Group 4), Day 14",1.04
same,Mean EAE score,"Compound A 10 mg/kg (Group 4), Day 15",1.33
same,Mean EAE score,"Compound A 10 mg/kg (Group 4), Day 16",1.46
same,Mean EAE score,"Compound A 10 mg/kg (Group 4), Day 17",1.46
same,Mean EAE score,"Compound A 10 mg/kg (Group 4), Day 18",1.54
same,Mean EAE score,"Compound A 10 mg/kg (Group 4), Day 19",1.21
same,Mean EAE score,"Compound A 10 mg/kg (Group 4), Day 20",1.13
same,Mean EAE score,"Compound A 10 mg/kg (Group 4), Day 21",1.17
same,Mean EAE score,"Compound A 10 mg/kg (Group 4), Day 22",0.75
same,Mean EAE score,"Compound A 10 mg/kg (Group 4), Day 23",0.71
same,Mean EAE score,"Compound A 10 mg/kg (Group 4), Day 24",0.63
same,Mean EAE score,"Compound A 10 mg/kg (Group 4), Day 25",0.46
same,Mean EAE score,"Compound A 10 mg/kg (Group 4), Day 26",0.50
same,Mean EAE score,"Compound A 10 mg/kg (Group 4), Day 27",0.46
same,Mean EAE score,"Compound A 10 mg/kg (Group 4), Day 28",0.29
same,Mean EAE score compared to positive control FTY720,"Day 28, 10 mg/kg",comparable mean EAE score
same,Day on which EAE scores peaked,[1],~17 days
same,Mean end EAE scores relative to vehicle,[1],significantly reduced mean end scores
same,Mean day of onset of EAE compared with vehicle,all doses,similar
